Like-named read-outs stand apart in the source and are kept apart here.
Columns and labels:
[1] = biological target: GSK3α (GST-full length GSK3α) (Homo sapiens (Human), UniProt P49840); experiment: GSK3α TR-FRET kinase assay; type: biochemical
Outline: (§1)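 IC50s came from the normalized 665/615 TR-FRET ratio after Tb-anti-pSer641 antibody and streptavidin-d2 detection of phosphorylated biotin-glycogen synthase peptide (200 nM). ATP was 4 μM for GSK3α, 2 μM for GSK3b, or 1 mM; 1 nM enzyme, 100 min, ambient, pH 7.5, after 30-min compound preincubation.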

[2] = biological target: GSK3b (GST-full length GSK3b) (Homo sapiens (Human), UniProt P49841); experiment: GSK3b TR-FRET kinase assay; type: biochemical
Outline: as §1

[3] = 1 nM GSK3α, 4 μM ATP, 30 minute preincubation, read-out: GSK3-A TR-FRET BIOCHEMICAL (TR-FRET), IC50
[4] = 1 nM GSK3b, 2 μM ATP, 30 minute preincubation, read-out: GSK3-B TR-FRET BIOCHEMICAL (TR-FRET), IC50
[5] = 1 nM GSK3α, 4 μM ATP, 30 minute preincubation, Table 16, read-out: GSK3-A TR-FRET BIOCHEMICAL (TR-FRET)
[6] = GSK3-A (TR-FRET 1 mM ATP), GMean, IC50, 1 mM ATP, geometric mean
[7] = 1 nM GSK3b, 2 μM ATP, 30 minute preincubation, Table 16, read-out: GSK3-B TR-FRET BIOCHEMICAL (TR-FRET)
[8] = GSK3-B (TR-FRET 1 mM ATP), GMean, IC50, 1 mM ATP, geometric mean
[9] = read-out: GSK3-A (TR-FRET 1 mM ATP), GMean, IC50, 1 mM ATP, geometric mean
[10] = read-out: GSK3-B (TR-FRET 1 mM ATP), GMean, IC50, 1 mM ATP, geometric mean
[11] = 1 nM GSK3α, 4 μM ATP, 30 minute preincubation, geometric mean, read-out: GSK3-A TR-FRET BIOCHEMICAL (TR-FRET), GMean, IC50
[12] = 1 nM GSK3b, 2 μM ATP, 30 minute preincubation, geometric mean, read-out: GSK3-B TR-FRET BIOCHEMICAL (TR-FRET), GMean, IC50

Sequence of GSK3b (GST-full length GSK3b) (P49841 whole entry): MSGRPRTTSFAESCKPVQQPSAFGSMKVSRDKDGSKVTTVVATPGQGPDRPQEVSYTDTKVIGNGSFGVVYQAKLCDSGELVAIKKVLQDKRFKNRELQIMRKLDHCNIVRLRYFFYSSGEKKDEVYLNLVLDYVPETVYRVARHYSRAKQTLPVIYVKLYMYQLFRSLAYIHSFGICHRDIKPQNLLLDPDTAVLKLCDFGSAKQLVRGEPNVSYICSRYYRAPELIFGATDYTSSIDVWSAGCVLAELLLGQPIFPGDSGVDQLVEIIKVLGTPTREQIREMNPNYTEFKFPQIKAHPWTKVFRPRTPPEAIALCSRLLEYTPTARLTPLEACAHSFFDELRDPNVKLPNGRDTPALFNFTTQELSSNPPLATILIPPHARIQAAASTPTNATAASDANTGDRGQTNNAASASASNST
Sequence of GSK3α (GST-full length GSK3α) (P49840 whole entry): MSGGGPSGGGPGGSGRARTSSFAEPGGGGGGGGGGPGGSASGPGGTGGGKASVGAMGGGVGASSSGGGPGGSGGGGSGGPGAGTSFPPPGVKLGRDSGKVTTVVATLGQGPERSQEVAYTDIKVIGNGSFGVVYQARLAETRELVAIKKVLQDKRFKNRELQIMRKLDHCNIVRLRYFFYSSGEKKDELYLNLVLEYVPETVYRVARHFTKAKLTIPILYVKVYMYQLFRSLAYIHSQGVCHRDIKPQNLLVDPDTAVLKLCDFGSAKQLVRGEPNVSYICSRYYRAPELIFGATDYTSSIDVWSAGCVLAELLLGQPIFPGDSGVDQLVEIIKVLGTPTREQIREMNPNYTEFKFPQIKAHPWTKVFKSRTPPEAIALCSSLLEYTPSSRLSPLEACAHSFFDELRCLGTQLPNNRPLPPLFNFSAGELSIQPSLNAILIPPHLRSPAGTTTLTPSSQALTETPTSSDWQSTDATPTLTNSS

Row | SMILES | IC50 [1, 5] | IC50 [2, 7] | further results
1 | CC1(C)CC(=O)C2=C(C1)Nc1n[nH]cc1C21CCN(S(=O)(=O)c2ccn(-c3ccccc3)n2)CC1 [Compound 947461] |  |  | IC50 [1, 3]: ≤ 100 nM; IC50 [2, 4]: ≤ 100 nM
2 | CC1(C)CC(=O)C2=C(C1)Nc1n[nH]cc1C21CCN(S(=O)(=O)c2cnc3ccccc3c2)CC1 [Compound 947462] | ≤ 100 nM | ≤ 100 nM | IC50 [1, 6]: 100 to 1000 nM; IC50 [2, 8]: 1000 to 5000 nM
3 | CC1(C)CC(=O)C2=C(C1)Nc1n[nH]cc1C21CCN(S(=O)(=O)c2cnccc2C(F)(F)F)CC1 [Compound 947463] | ≤ 100 nM | 100 to 1000 nM | 
4 | CC1(C)CC(=O)C2=C(C1)Nc1n[nH]cc1C21CCN(S(=O)(=O)c2cccc3c2OCCO3)CC1 [Compound 947464] |  |  | IC50 [1, 3]: ≤ 100 nM; IC50 [1, 6]: ≤ 100 nM; IC50 [2, 4]: ≤ 100 nM; IC50 [2, 8]: 100 to 1000 nM
5 | COc1cncc(S(=O)(=O)N2CCC3(CC2)C2=C(CC(C)(C)CC2=O)Nc2n[nH]cc23)c1 [Compound 947465] | ≤ 100 nM | ≤ 100 nM | 
6 | CC1(C)CC(=O)C2=C(C1)Nc1n[nH]cc1C21CCN(S(=O)(=O)c2cnnn2-c2ccccc2)CC1 [Compound 947466] | ≤ 100 nM | 100 to 1000 nM | 
7 | CC1(C)CC(=O)C2=C(C1)Nc1n[nH]cc1C21CCN(S(=O)(=O)c2cnc3n2CCC3)CC1 [Compound 947467] | ≤ 100 nM | 100 to 1000 nM | 
8 | Cc1ccc(S(=O)(=O)N2CCC3(CC2)C2=C(CC(C)(C)CC2=O)Nc2n[nH]cc23)c(C)c1 [Compound 947468] | ≤ 100 nM | ≤ 100 nM | 
9 | CC1(C)CC(=O)C2=C(C1)Nc1n[nH]cc1C21CCN(S(=O)(=O)c2cccc3ncccc23)CC1 [Compound 947469] | ≤ 100 nM | ≤ 100 nM | 
10 | CC1(C)CC(=O)C2=C(C1)Nc1n[nH]cc1C21CCN(S(=O)(=O)c2cccc3c2CCCC3)CC1 [Compound 947470] | ≤ 100 nM | ≤ 100 nM | 
11 | Cc1ccc(C)c(S(=O)(=O)N2CCC3(CC2)C2=C(CC(C)(C)CC2=O)Nc2n[nH]cc23)c1 [Compound 947471] | ≤ 100 nM | 100 to 1000 nM | 
12 | CC1(C)CC(=O)C2=C(C1)Nc1n[nH]cc1C21CCN(S(=O)(=O)c2cn3c(n2)CCCC3)CC1 [Compound 947472] | ≤ 100 nM | 100 to 1000 nM | 
13 | CC(C)c1ccccc1S(=O)(=O)N1CCC2(CC1)C1=C(CC(C)(C)CC1=O)Nc1n[nH]cc12 [Compound 947473] | 100 to 1000 nM | 100 to 1000 nM | 
14 | CC1(C)CC(=O)C2=C(C1)Nc1n[nH]cc1C21CCN(S(=O)(=O)c2cnn3c2CCCC3)CC1 [Compound 947474] | ≤ 100 nM | ≤ 100 nM | 
15 | Cc1cc(S(=O)(=O)N2CCC3(CC2)C2=C(CC(C)(C)CC2=O)Nc2n[nH]cc23)ccc1Cl [Compound 947475] | ≤ 100 nM | ≤ 100 nM | 
16 | CC1(C)CC(=O)C2=C(C1)Nc1n[nH]cc1C21CCN(S(=O)(=O)c2ccc3ccccc3n2)CC1 [Compound 947476] |  |  | IC50 [1, 3]: ≤ 100 nM; IC50 [2, 4]: ≤ 100 nM
17 | COCCn1cc(S(=O)(=O)N2CCC3(CC2)C2=C(CC(C)(C)CC2=O)Nc2n[nH]cc23)cn1 [Compound 947477] | ≤ 100 nM | ≤ 100 nM | 
18 | COc1ccc(S(=O)(=O)N2CCC3(CC2)C2=C(CC(C)(C)CC2=O)Nc2n[nH]cc23)cc1F [Compound 947478] | ≤ 100 nM | ≤ 100 nM | 
19 | CC1(C)CC(=O)C2=C(C1)Nc1n[nH]cc1C21CCN(S(=O)(=O)c2ccccc2C#N)CC1 [Compound 947479] | ≤ 100 nM | ≤ 100 nM | 
20 | CC1(C)CC(=O)C2=C(C1)Nc1n[nH]cc1C21CCN(S(=O)(=O)c2cnc3n2CCCC3)CC1 [Compound 947480] | ≤ 100 nM | ≤ 100 nM | 
21 | Cc1cc(S(=O)(=O)N2CCC3(CC2)C2=C(CC(C)(C)CC2=O)Nc2n[nH]cc23)ccn1 [Compound 947481] | ≤ 100 nM | ≤ 100 nM | 
22 | Cc1ccc(S(=O)(=O)N2CCC3(CC2)C2=C(CC(C)(C)CC2=O)Nc2n[nH]cc23)cn1 [Compound 947482] | ≤ 100 nM | ≤ 100 nM | 
23 | CC1(C)CC(=O)C2=C(C1)Nc1n[nH]cc1C21CCN(S(=O)(=O)c2cnn3c2OCCC3)CC1 [Compound 947483] | ≤ 100 nM | ≤ 100 nM | 
24 | CC1(C)CC(=O)C2=C(C1)Nc1n[nH]cc1C21CCN(S(=O)(=O)c2c(F)cc(F)cc2F)CC1 [Compound 947484] |  |  | IC50 [1, 3]: ≤ 100 nM; IC50 [2, 4]: ≤ 100 nM
25 | CC1(C)CC(=O)C2=C(C1)Nc1n[nH]cc1C21COC2(CN(C(=O)C(F)F)C2)C1 (stereo not drawn) [Compound 947485] |  |  | IC50 [1, 3]: ≤ 100 nM; IC50 [2, 4]: ≤ 100 nM

Row | SMILES | IC50 [1, 5] | IC50 [2, 7] | further results
26 | CC1(C)CC(=O)C2=C(C1)Nc1n[nH]cc1C21COC2(CN(C(=O)C3CCC(F)C3)C2)C1 (stereo not drawn) [Compound 947486] |  |  | IC50 [1, 3]: ≤ 100 nM; IC50 [2, 4]: ≤ 100 nM
27 | CC1(C)CC(=O)C2=C(C1)Nc1n[nH]cc1C21COC2(CN(C(=O)C3(F)CC3)C2)C1 (stereo not drawn) [Compound 947487] |  |  | IC50 [1, 3]: ≤ 100 nM; IC50 [2, 4]: ≤ 100 nM
28 | CCC1(c2cccc(-c3c(C)cnn3C)c2)C2=C(CC(C)(C)CC2=O)Nc2n[nH]cc21 (stereo not drawn) [Compound 947491] | ≤ 100 nM | ≤ 100 nM | 
29 | CCC1(c2cccc(-c3cnn4c3CCC4)c2)C2=C(CC(C)(C)CC2=O)Nc2n[nH]cc21 (stereo not drawn) [Compound 947494] | ≤ 100 nM | 100 to 1000 nM | 
30 | CC[C@]1(c2cccc(Cc3ncccn3)c2)C2=C(CC(C)(C)CC2=O)Nc2n[nH]cc21 [Compound 947499] | 1000 to 5000 nM | > 5000 nM | IC50 [1, 9]: > 5000 nM; IC50 [2, 10]: > 5000 nM
31 | CC[C@@]1(c2cccc(-c3c(F)cncc3OC)c2)C2=C(CC(C)(C)CC2=O)Nc2n[nH]cc21 [Compound 947511] | ≤ 100 nM | ≤ 100 nM | IC50 [1, 9]: ≤ 100 nM; IC50 [2, 10]: ≤ 100 nM
32 | CCC1(c2cccc(Cc3ncccc3C(F)(F)F)c2)C2=C(CC(C)(C)CC2=O)Nc2n[nH]cc21 (stereo not drawn) [Compound 947548] | 100 to 1000 nM | 100 to 1000 nM | 
33 | CCC1(c2cccc(S(=O)(=O)C3CC3)c2)C2=C(CC(C)(C)NC2=O)Nc2n[nH]c(C)c21 (stereo not drawn) [Compound 947562] |  |  | IC50 [1, 11]: ≤ 100 nM; IC50 [2, 12]: ≤ 100 nM
34 | CCC1(c2cccc(-c3ccnc(C)c3F)c2)C2=C(CC(C)(C)NC2=O)Nc2n[nH]c(C)c21 (stereo not drawn) [Compound 947563] |  |  | IC50 [1, 11]: ≤ 100 nM; IC50 [2, 12]: 100 to 1000 nM
35 | CCC1(c2cccc(N3CCOCC3)c2)C2=C(CC(C)(C)NC2=O)Nc2n[nH]c(C)c21 (stereo not drawn) [Compound 947564] |  |  | IC50 [1, 11]: 100 to 1000 nM; IC50 [2, 12]: 100 to 1000 nM
36 | CCC1(c2cccc(N3CCCCC3)c2)C2=C(CC(C)(C)NC2=O)Nc2n[nH]cc21 (stereo not drawn) [Compound 947566] |  |  | IC50 [1, 11]: 1000 to 5000 nM; IC50 [2, 12]: 1000 to 5000 nM
37 | CCC1(c2cccc(-c3c(C)nn(C)c3C)c2)C2=C(CC(C)(C)NC2=O)Nc2n[nH]c(C(F)(F)F)c21 (stereo not drawn) [Compound 947568] |  |  | IC50 [1, 11]: ≤ 100 nM; IC50 [2, 12]: ≤ 100 nM
38 | CCC1(c2cccc(-c3ccncc3S(C)(=O)=O)c2)C2=C(CC(C)(C)CC2=O)Nc2n[nH]cc21 (stereo not drawn) [Compound 947569] | ≤ 100 nM | ≤ 100 nM | 
39 | CC[C@]1(c2cccc(-c3c(C)nn(C)c3C)c2)C2=C(CC(C)(C)NC2=O)Nc2n[nH]c(C)c21 [Compound 947573] |  |  | IC50 [1, 11]: 100 to 1000 nM; IC50 [2, 12]: 1000 to 5000 nM
40 | CC[C@]1(c2cccc(-c3ccncc3C)c2)C2=C(CC(C)(C)NC2=O)Nc2n[nH]cc21 [Compound 947574] |  |  | IC50 [1, 11]: ≤ 100 nM; IC50 [2, 12]: ≤ 100 nM
41 | CCC1(c2cccc(-c3c(C)nn(C)c3C)c2)C2=C(CC(C)(C)NC2=O)Nc2n[nH]c(C)c21 (stereo not drawn) [Compound 947575] |  |  | IC50 [1, 11]: ≤ 100 nM; IC50 [2, 12]: ≤ 100 nM
42 | CCC1(c2cccc(-c3ccncc3C)c2)C2=C(CC(C)(C)NC2=O)Nc2n[nH]cc21 (stereo not drawn) [Compound 947576] |  |  | IC50 [1, 11]: ≤ 100 nM; IC50 [2, 12]: 1000 to 5000 nM
43 | COCc1cccc(S(=O)(=O)N2CCC3(CC2)C2=C(CC(C)(C)CC2=O)Nc2n[nH]cc23)c1 [Compound 947605] | ≤ 100 nM | ≤ 100 nM | 
44 | Cn1nc(C(F)(F)F)cc1S(=O)(=O)N1CCC2(CC1)C1=C(CC(C)(C)CC1=O)Nc1n[nH]cc12 [Compound 947606] | ≤ 100 nM | ≤ 100 nM | 
45 | CC(C)n1cc(S(=O)(=O)N2CCC3(CC2)C2=C(CC(C)(C)CC2=O)Nc2n[nH]cc23)cn1 [Compound 947607] | ≤ 100 nM | ≤ 100 nM | 
46 | Cc1cc(S(=O)(=O)N2CCC3(CC2)C2=C(CC(C)(C)CC2=O)Nc2n[nH]cc23)n(C)n1 [Compound 947608] | ≤ 100 nM | ≤ 100 nM | 
47 | CCn1nc(C)cc1S(=O)(=O)N1CCC2(CC1)C1=C(CC(C)(C)CC1=O)Nc1n[nH]cc12 [Compound 947609] | ≤ 100 nM | 100 to 1000 nM | 
48 | CC1(C)CC(=O)C2=C(C1)Nc1n[nH]cc1C21CCN(S(=O)(=O)c2cnc3ccccn23)CC1 [Compound 947610] | ≤ 100 nM | ≤ 100 nM | 
49 | Cc1ncc(S(=O)(=O)N2CCC3(CC2)C2=C(CC(C)(C)CC2=O)Nc2n[nH]cc23)o1 [Compound 947611] | ≤ 100 nM | ≤ 100 nM | IC50 [1, 6]: 100 to 1000 nM; IC50 [2, 8]: 100 to 1000 nM

Source: US20250313563A1, “GLYCOGEN SYNTHASE KINASE 3 INHIBITORS AND USES THEREOF” (The Broad Institute, Inc., priority 2022, published 2025)
